For 16 molecules, IC50 results are on record in patent US12110276B2 (Genentech, Inc., priority 2021, dated 2024).

For one test, the target named is TEAD1 (Homo sapiens (Human), UniProt P28347). As to the kind of experiment: TR-FRET lipid pocket probe competition assay (Lipid HTRF), TEAD1.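 Note: His-tagged TEAD1 with biotinylated probe, detected via Europium anti-His and XL665 streptavidin, probe displacement lowers TR-FRET signal, IC50 from four-parameter nonlinear fit.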 It counts as binding. To be noted: 4 hours pre-incubation; read-out: Lipid HTRF TEAD1 IC50.
Sequence of TEAD1 (P28347 whole entry, species assumed): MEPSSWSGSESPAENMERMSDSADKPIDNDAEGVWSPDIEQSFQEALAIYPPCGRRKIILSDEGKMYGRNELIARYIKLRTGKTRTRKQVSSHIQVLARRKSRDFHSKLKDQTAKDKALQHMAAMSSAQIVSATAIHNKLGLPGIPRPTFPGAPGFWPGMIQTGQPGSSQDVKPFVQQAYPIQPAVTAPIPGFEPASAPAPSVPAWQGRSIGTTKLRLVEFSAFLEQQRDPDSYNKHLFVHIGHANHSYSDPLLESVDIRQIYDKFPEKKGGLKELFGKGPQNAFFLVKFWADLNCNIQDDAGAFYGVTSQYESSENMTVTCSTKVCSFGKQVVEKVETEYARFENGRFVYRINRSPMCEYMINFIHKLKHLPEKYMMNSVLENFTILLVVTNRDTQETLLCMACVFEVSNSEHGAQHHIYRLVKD
A further test has as its target TEAD3 (Homo sapiens (Human), UniProt Q99594). As to the kind of experiment: TR-FRET lipid pocket probe competition assay (Lipid HTRF), TEAD3. The test is classed as binding. To be noted: 4 hours pre-incubation; read-out: Lipid HTRF TEAD3 IC50. On the technique in general: Time-resolved FRET reads energy transfer from a long-lived donor to a nearby acceptor.
The target in the next test is TEAD4 (Homo sapiens (Human), UniProt Q15561). As to the kind of experiment: TR-FRET lipid pocket probe competition assay (Lipid HTRF), TEAD4.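 Note: His-tagged TEAD4 with biotinylated lipid-pocket probe, read by Europium anti-His and XL665 streptavidin, where probe displacement lowers the TR-FRET signal, IC50 from a four-parameter fit.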 The test is classed as binding. The conditions noted are these: 4 hours pre-incubation; read-out: Lipid HTRF TEAD4 IC50.
Sequence of TEAD4 (Q15561 whole entry, species assumed): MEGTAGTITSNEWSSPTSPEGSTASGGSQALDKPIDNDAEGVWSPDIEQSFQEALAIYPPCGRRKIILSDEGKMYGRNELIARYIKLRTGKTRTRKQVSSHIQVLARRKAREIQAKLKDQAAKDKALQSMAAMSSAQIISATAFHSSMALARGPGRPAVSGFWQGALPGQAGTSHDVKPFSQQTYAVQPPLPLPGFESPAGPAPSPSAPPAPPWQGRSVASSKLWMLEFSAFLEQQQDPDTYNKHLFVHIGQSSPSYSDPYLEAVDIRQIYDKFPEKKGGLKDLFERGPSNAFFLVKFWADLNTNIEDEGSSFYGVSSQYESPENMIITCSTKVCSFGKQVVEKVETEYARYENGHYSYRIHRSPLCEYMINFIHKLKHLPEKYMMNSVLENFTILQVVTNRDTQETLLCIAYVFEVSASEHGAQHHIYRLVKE
In another test the target is TEAD2 (Homo sapiens (Human), UniProt Q15562).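 Note: TR-FRET competition assay with His-tagged TEAD protein and a biotinylated lipid pocket probe, compound pre-incubated 30 min or 4 h at room temperature, displacement lowers signal.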
Sequence of TEAD2 (Q15562 whole entry, species assumed): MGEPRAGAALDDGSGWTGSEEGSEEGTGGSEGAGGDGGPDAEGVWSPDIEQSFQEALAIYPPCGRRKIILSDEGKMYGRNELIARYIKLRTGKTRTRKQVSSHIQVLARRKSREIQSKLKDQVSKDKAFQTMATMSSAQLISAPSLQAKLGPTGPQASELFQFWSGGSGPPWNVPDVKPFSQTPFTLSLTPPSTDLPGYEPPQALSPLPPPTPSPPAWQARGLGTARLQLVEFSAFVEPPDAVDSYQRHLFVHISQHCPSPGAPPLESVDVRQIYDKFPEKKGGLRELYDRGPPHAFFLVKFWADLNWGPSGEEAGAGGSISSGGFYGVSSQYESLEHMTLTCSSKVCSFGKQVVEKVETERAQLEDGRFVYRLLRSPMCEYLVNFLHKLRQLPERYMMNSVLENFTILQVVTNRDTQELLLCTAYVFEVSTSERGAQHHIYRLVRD

Sequence of TEAD3 (Q99594 whole entry, species assumed): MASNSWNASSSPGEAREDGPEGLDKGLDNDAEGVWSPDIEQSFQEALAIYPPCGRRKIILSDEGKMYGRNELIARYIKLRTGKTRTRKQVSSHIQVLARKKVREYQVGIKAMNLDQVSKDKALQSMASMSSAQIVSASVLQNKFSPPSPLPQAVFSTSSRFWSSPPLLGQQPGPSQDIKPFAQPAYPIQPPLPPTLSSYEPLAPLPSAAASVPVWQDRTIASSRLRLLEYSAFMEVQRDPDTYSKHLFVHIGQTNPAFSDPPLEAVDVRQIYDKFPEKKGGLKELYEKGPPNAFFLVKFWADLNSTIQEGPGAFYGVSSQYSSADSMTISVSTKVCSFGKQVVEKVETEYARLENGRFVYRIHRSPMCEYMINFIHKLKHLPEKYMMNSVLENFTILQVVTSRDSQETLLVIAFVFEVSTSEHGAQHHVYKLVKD
Description for TEAD4: His-tagged TEAD proteins are pre-incubated with TEAD project compounds for 30 minutes or 4 hours at room temperature. Biotinylated lipid pocket probes are then added to the TEAD/Compound mixture and incubated for 60 minutes at room temperature. The lipid pocket probe competes with the test compound for the TEAD lipid pocket until equilibrium is reached. After 60 minutes, Europium labelled anti-His (Perkin Elmer #AD0110) and XL665 labelled streptavidin (CIS Bio 610SAXAC) are added to the TEAD/test compound/lipid pocket mixture and incubated for 30 minutes or 4 hours. […] If a TEAD lipid pocket binder such as binds and displaces the lipid pocket probe, the disruption of the TEAD:probe interaction results in a decrease in TR-FRET signal. The potency of compounds as TEAD lipid pocket binders is determined by IC50 value generated using a non-linear 4 parameter curve fit.

The term IC50 denotes the concentration that inhibits the measured activity by half. In the case of `C=C(F)C(=O)N1CC(c2nn(-c3ccc(OC(F)(F)F)cc3)c3nccc(N4CC(CO)(CO)C4)c23)C1` [Compound 142, 1-(3-(4-(3,3-Bis(hydroxymethyl)azetidin-1-yl)-1-(4-(trifluoromethoxy)phenyl)-1H-pyrazolo[3,4-b]pyridin-3-yl)azetidin-1-yl)-2-fluoroprop-2-en-1-one], the concentration for half-maximal inhibition (IC50) on TEAD1 worked out at 150 nM; at TEAD3 it was 50000 nM; on TEAD4, 9 nM; at TEAD2 it was 330 nM.
The corresponding values for `C=CC(=O)NCc1nn(-c2ccc(OC(F)(F)F)cc2)c2nccc(N[C@H]3C[C@@H](O)C3)c12` [Compound 143, N-((4-((3-hydroxycyclobutyl)amino)-1-(4-(trifluoromethoxy)phenyl)-1H-pyrazolo[3,4-b]pyridin-3-yl)methyl)acrylamide] are 16 nM, 50000 nM, 65 nM and 65 nM.
`C=CC(=O)NCc1nn(-c2ccc(OC(F)(F)F)cc2)c2nccc([C@H]3COC(=O)O3)c12` [Compound 144, (S)-N-((4-(2-Oxo-1,3-dioxolan-4-yl)-1-(4-(trifluoromethoxy)phenyl)-1H-pyrazolo[3,4-b]pyridin-3-yl)methyl)acrylamide]: the IC50 was determined as 560 nM at TEAD1, 50000 nM at TEAD3, 55 nM at TEAD4 and 150 nM against TEAD2.
The corresponding values for `O=C(NCc1nn(-c2ccc(OC(F)(F)F)cc2)c2nccc(CO)c12)C1=CCC1` [Compound 148, N-((4-(Hydroxymethyl)-1-(4-(trifluoromethoxy)phenyl)-1H-pyrazolo[3,4-b]pyridin-3-yl)methyl)cyclobut-1-enecarboxamide] are 17 nM, 280 nM, 14 nM and 90 nM.
The corresponding values for `O=C(C1=CCCC1)N1CC(c2nn(-c3ccc(OC(F)(F)F)cc3)c3nccc(CO)c23)C1` [Compound 150, Cyclopent-1-en-1-yl(3-(4-(hydroxymethyl)-1-(4-(trifluoromethoxy)phenyl)-1H-pyrazolo[3,4-b]pyridin-3-yl)azetidin-1-yl)methanone] are 560 nM, 50000 nM, 460 nM and 1200 nM.
Consider `C/C=C(\C)C(=O)N1CC(c2nn(-c3ccc(OC(F)(F)F)cc3)c3nccc(CO)c23)C1` [Compound 151, (E)-1-(3-(4-(Hydroxymethyl)-1-(4-(trifluoromethoxy)phenyl)-1H-pyrazolo[3,4-b]pyridin-3-yl)azetidin-1-yl)-2-methylbut-2-en-1-one], for which the 50% inhibitory concentration (IC50) was found to be 680 nM on TEAD1, 50000 nM on TEAD3, 570 nM at TEAD4 and 630 nM at TEAD2.
Consider `O=C(C1=CCOC1)N1CC(c2nn(-c3ccc(OC(F)(F)F)cc3)c3nccc(CO)c23)C1` [Compound 152, (2,5-Dihydrofuran-3-yl)(3-(4-(hydroxymethyl)-1-(4-(trifluoromethoxy)phenyl)-1H-pyrazolo[3,4-b]pyridin-3-yl)azetidin-1-yl)methanone], for which the IC50 at TEAD1 turned out to be 220 nM; on TEAD3 it was 1200 nM; on TEAD4, 140 nM; against TEAD2, 810 nM.
Regarding `C=C(F)C(=O)NCc1nn(-c2ccc(OC(F)(F)F)cc2)c2nccc([C@H](O)CO)c12` [Compound 155, (S)-N-((4-(1,2-Dihydroxyethyl)-1-(4-(trifluoromethoxy)phenyl)-1H-pyrazolo[3,4-b]pyridin-3-yl)methyl)-2-fluoroacrylamide], the half-inhibitory concentration (IC50) was 320 nM on TEAD1, 6900 nM on TEAD3, 160 nM on TEAD4 and 350 nM against TEAD2.
Turning to `O=C(NCc1nn(-c2ccc(OC(F)(F)F)cc2)c2nccc([C@H](O)CO)c12)C1=CCC1` [Compound 156, (S)-N-((4-(1,2-Dihydroxyethyl)-1-(4-(trifluoromethoxy)phenyl)-1H-pyrazolo[3,4-b]pyridin-3-yl)methyl)cyclobut-1-enecarboxamide], the IC50 at TEAD1 worked out at 33 nM; on TEAD3 it was 740 nM; at TEAD4, 7.8 nM; against TEAD2, 25 nM.
Regarding `C=C(F)C(=O)N1CC(c2nn(-c3ccc(OC(F)(F)F)cc3)c3nccc(-c4cnn(C)c4)c23)C1` [Compound 158, 2-Fluoro-1-(3-(4-(1-methyl-1H-pyrazol-4-yl)-1-(4-(trifluoromethoxy)phenyl)-1H-pyrazolo[3,4-b]pyridin-3-yl)azetidin-1-yl)prop-2-en-1-one], the 50% inhibitory concentration (IC50) at TEAD1 stood at 51 nM; at TEAD3, 4300 nM; on TEAD4 it was 64 nM; on TEAD2, 690 nM.
As to `C=C(C)S(=O)(=O)N1CC(c2nn(-c3ccc(OC(F)(F)F)cc3)c3nccc([C@H](O)CO)c23)C1` [Compound 159, (S)-1-(3-(1-(Prop-1-en-2-ylsulfonyl)azetidin-3-yl)-1-(4-(trifluoromethoxy)phenyl)-1H-pyrazolo[3,4-b]pyridin-4-yl)ethane-1,2-diol], the IC50 on TEAD1 is 45 nM; at TEAD3 it was 240 nM; at TEAD4, 8.5 nM; against TEAD2 it was 5.7 nM.
Consider `C=C(C)S(=O)(=O)N1CC(c2nn(-c3ccc(OC(F)(F)F)cc3)c3nccc([C@@H](O)CO)c23)C1` [Compound 160, (R)-1-(3-(1-(prop-1-en-2-ylsulfonyl)azetidin-3-yl)-1-(4-(trifluoromethoxy)phenyl)-1H-pyrazolo[3,4-b]pyridin-4-yl)ethane-1,2-diol], for which the IC50 on TEAD1 came out at 76 nM; at TEAD3, 1200 nM; on TEAD4 it was 43 nM; against TEAD2, 15 nM.
`C=CC(=O)NCc1nn(-c2ccc(OC(F)(F)F)cc2)c2nccc(-c3cnn(C)c3)c12` [Compound 164, N-((4-(1-methyl-1H-pyrazol-4-yl)-1-(4-(trifluoromethoxy)phenyl)-1H-pyrazolo[3,4-b]pyridin-3-yl)methyl)acrylamide]: the IC50 turned out to be 47.9 nM on TEAD1, 2040 nM at TEAD3, 32 nM on TEAD4 and 129 nM on TEAD2.
The corresponding values for `C=CC(=O)NCc1nn(-c2ccc(OC(F)(F)F)cc2)c2nccc(-c3cnn(CC(N)=O)c3)c12` [Compound 165, N-((4-(1-(2-amino-2-oxoethyl)-1H-pyrazol-4-yl)-1-(4-(trifluoromethoxy)phenyl)-1H-pyrazolo[3,4-b]pyridin-3-yl)methyl)acrylamide] are 120 nM, 50000 nM, 100 nM and 40 nM.
The corresponding values for `C=CC(=O)NCc1nn(-c2ccc(OC(F)(F)F)cc2)c2nccc(-c3cnn(CCOC)c3)c12` [Compound 167, N-[[4-[1-(2-methoxyethyl)pyrazol-4-yl]-1-[4-(trifluoromethoxy)phenyl]pyrazolo[3,4-b]pyridin-3-yl]methyl]prop-2-enamide] are 57 nM, 1700 nM, 35 nM and 210 nM.
The corresponding values for `C=CC(=O)NCc1nn(-c2ccc(OC(F)(F)F)cc2)c2nccc(-c3cnn(CCS(C)(=O)=O)c3)c12` [Compound 168, N-((4-(1-(2-(methylsulfonyl)ethyl)-1H-pyrazol-4-yl)-1-(4-(trifluoromethoxy)phenyl)-1H-pyrazolo[3,4-b]pyridin-3-yl)methyl)acrylamide] are 140 nM, 50000 nM, 49 nM and 1100 nM.
